Measurements taken from patent EP1951308B1, “COMBINATION PREPARATIONS CONTAINING PHYSIOLOGICAL CELL MEMBRANE CONSTITUENTS INCLUDING PHOSPHATIDYLSERINE, CHOLINE AND A PYRIMIDINE NUCLEOSIDE/NUCLEOTIDE” (Susilo, Gisela, priority 2005, dated 2007).
Entries after “also recorded” stand apart in the source; their conditions may differ.

Tested on: elektrische Hirnaktivität
Test: EEG recording (CATEEM system, 17 electrodes, 10/20 system) of electrical brain activity after a single oral intake, compared with placebo; studies 1, 3, 4 and 5
Format: in vivo, gesunden Testpersonen
Conditions: for Hirnaktivität / Hirnleistung / Gehirnfunktion (Stimulierung): conclusion in words drawn from the EEG results; for delta Aktivität in Bezug auf die Referenz (Placebo) / Veränderung der delta Aktivität im Vergleich zu Placebo: oral, Augen offen; for Veränderung der delta Aktivität im Vergleich zu Placebo: during 4 Stunden after intake, studies 3-5; for neuro-regenerierende Wirkung: summary of Studienbeispiele 1 - 5, EEG, single oral dose; for delta Power (delta Aktivität): study 1, recording condition not stated, 1-4 h after oral intake

Compound | Hirnaktivität / Hirnleistung / Gehirnfunktion (Stimulierung) | delta Aktivität in Bezug auf die Referenz (Placebo) (1 h after intake) [%] | delta Aktivität in Bezug auf die Referenz (Placebo) (2h after intake) [%] | delta Aktivität in Bezug auf die Referenz (Placebo) (4h after intake) [%] | Veränderung der delta Aktivität im Vergleich zu Placebo (result in words) | neuro-regenerierende Wirkung | Beta-Aktivitäten (beta Power) (result in words, study 1) | alpha Power (alpha Aktivität) (result in words, study 1) | delta Aktivitäten (result in words, study 1, Augen offen) | delta Power (delta Aktivität) (result in words) | delta Power (delta Aktivität) (result in words, listed as INDO I)
C[N+](C)(C)CCOP(=O)([O-])OP(=O)(O)OC[C@H]1O[C@@H](n2ccc(N)nc2=O)[C@H](O)[C@@H]1O [CDP-Cholin, Cytidindiphosphocholin] | nicht bzw. nur leicht jedoch nicht signifikant steigern | 98 | 102 | 96 | geringfügige aber im Vergleich zum Placebo-Arm nicht signifikante Veränderung | - |  |  |  |  | 
Phosphatidylserin | nicht bzw. nur leicht jedoch nicht signifikant steigern; also recorded: nicht beobachtet | 96 | 94 | 94 | keinen signifikanten Veränderungen | - | nur bei einem Messzeitpunkt nämlich 3 Stunden nach Verabreichung des Wirkstoffs eine statistisch signifikante Abnahme | leichter aber nicht signifikanter Zunahme | während der zweiten und dritten Stunde vermindert, aber keine statistische Signifikanz | Abnahme des delta Power | Abnahme der elektrischen delta Aktivität (delta Power), die jedoch nur 4 Stunden nach Applikation statistisch signifikant war
